“Also recorded” adds a separate entry of the source. Read-outs that look alike come from different tables or passages of the source.
Columns and labels:
[1] = molecular target: metallo-β-lactamases (Bacillus cereus enzyme) (Bacillus cereus, UniProt P04190); conditions: Mollard et al. (2001); cited from earlier work
[2] = molecular target: B. cereus 5/B/6 metallo-β-lactamase (Bacillus cereus, UniProt P14488); format: biochemical; conditions: for time dependence of the reversible inhibition: 50 mM MOPS, cephalosporin C; for time dependence of the reversible inhibition / IC50: pH=7.0; for inhibition pattern from steady-state kinetic study: Lineweaver-Burk plot; for IC50: enzyme preincubated 15 min at 30° C. in 50 mM MOPS, 4 mM cephalosporin C
B. cereus 5/B/6 metallo-β-lactamase, sequence (P14488 30-256): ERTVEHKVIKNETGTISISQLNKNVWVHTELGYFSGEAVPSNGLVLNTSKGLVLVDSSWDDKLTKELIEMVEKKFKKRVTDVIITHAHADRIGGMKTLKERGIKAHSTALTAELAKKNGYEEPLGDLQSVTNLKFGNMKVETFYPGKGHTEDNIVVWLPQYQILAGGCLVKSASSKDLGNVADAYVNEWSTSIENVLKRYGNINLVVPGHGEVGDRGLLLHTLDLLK

[3] = molecular target: T1, bovine carboxypeptidase A (Bos taurus, UniProt P00730); assay: Bovine carboxypeptidase A assay (hippuryl-L-phenylalanine hydrolysis), specificity test; format: biochemical; conditions: 25 nM; 1 mM hippuryl-L-phenylalanine; 25° C., pH=7.5
T1 construct: purchased Sigma
T1 sequence (P00730 111-419): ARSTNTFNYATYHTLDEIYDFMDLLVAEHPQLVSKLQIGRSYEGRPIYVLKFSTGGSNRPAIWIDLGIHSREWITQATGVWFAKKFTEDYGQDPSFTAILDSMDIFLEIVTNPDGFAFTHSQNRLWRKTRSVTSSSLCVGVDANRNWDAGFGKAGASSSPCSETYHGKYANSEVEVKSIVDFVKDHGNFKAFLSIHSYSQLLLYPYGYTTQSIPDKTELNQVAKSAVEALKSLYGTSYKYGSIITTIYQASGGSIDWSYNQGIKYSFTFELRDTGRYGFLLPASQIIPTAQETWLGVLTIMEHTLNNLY
Experimental: Method for assay of bovine carboxypeptidase A. The assay of bovine carboxypeptidase A is based on the method of Folk and Schirmer (1963). The rate of hydrolysis of hippuryl-L-phenylalanine is determined by monitoring the increase in absorbance at 254 nm ([…], pH=7.5). The enzyme was dissolved in 10% lithium chloride to a concentration of 1-3 units per mL. Hippuryl-L-phenylalanine (0.001 M) was dissolved in 0.05 M TrisHCl, pH=7.5 with 0.5 M sodium chloride. In a 1 cm of cuvette, 1.0 mL of substrate was added and incubated in the spectrophotometer at 25° C. for 3-4 minutes to reach temperature equilibration and establish blank rate. Fifty μL of diluted enzyme was added to record increase in A254. The enzyme was preincubated with/without the inhibitor in the buffer for 15 min. at 25° C.

[4] = molecular target: metallo-β-lactamase from Stenotrophomonas maltophilia (Stenotrophomonas maltophilia, UniProt P52700); conditions: Yang and Crowder (1999); cited from earlier work
metallo-β-lactamase from Stenotrophomonas maltophilia, sequence (P52700 34-290): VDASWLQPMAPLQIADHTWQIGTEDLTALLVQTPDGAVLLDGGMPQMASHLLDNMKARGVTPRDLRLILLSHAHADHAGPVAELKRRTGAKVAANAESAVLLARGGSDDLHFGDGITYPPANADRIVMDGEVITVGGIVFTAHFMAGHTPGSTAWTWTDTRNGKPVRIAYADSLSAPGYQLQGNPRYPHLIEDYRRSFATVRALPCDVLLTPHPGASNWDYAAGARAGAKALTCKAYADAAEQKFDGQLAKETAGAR

[5] = molecular target: metallo-β-lactamase from B. fragilis (Bacteroides fragilis, UniProt P25910); conditions: NMR characterization; Scrofani et al. (1999); cited from earlier work
metallo-β-lactamase from B. fragilis, sequence (P25910 19-249): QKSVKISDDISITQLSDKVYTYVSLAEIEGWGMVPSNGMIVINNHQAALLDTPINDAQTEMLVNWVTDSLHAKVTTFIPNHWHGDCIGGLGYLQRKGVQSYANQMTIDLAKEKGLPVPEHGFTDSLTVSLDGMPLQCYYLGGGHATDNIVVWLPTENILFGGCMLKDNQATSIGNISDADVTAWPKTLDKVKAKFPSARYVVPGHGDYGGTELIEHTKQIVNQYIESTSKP

class B β-lactamases = conditions: cited from earlier work
[6] = intercept replot of Lineweaver-Burk data, read-out: Ki′ (dissociation constant for the inhibitor from the enzyme-substrate-inhibitor complex)
[7] = slope replot of Lineweaver-Burk data, read-out: Ki (dissociation constant for the inhibitor from the enzyme-inhibitor complex)

metallo-β-lactamases (Bacillus cereus enzyme), sequence (P04190 31-257): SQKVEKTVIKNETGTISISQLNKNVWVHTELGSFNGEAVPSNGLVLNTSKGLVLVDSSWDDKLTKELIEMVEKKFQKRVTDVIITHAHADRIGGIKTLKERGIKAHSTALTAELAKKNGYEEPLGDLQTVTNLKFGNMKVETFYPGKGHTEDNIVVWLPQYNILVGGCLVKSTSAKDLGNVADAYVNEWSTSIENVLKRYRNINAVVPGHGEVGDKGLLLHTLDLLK

Question: For R-thiomandelic acid, which Ki [1] is on record?
Answer: 90 nM

Question: Which results are given for “5′-d(AACCAAACTTGGATCGGTGCACATGTCGAA)-3′ [30-mer]”?
Answer: time dependence of the reversible inhibition ([2]; 0.5 nM the 30-mer): time-independent; also recorded: not time-dependent; inhibition pattern from steady-state kinetic study [2]: noncompetitive inhibition; IC50 [2]: 0.0012 µM; Ki [2, 6]: 11 nM; Ki [2, 7]: 0.92 nM; effect on the activity of the carboxypeptidase A [3]: no effect; also recorded: did not show any inhibition

Question: Which “inhibition pattern from steady-state kinetic study” value (“inhibition pattern” below) [2] does the source give for `O=C(O)CN(CCN(CC(=O)O)CC(=O)O)CC(=O)O` [EDTA, reference compound] here?
Answer: noncompetitive inhibition

Question: And the IC50 [2]?
Answer: 3.1 µM

Question: What about the Ki [2, 6] of the same molecule?
Answer: 2900 nM

Question: And the Ki [2, 7]?
Answer: 750 nM

Question: Which results are given for `O=C(Cc1ccccc1)NCCS` [N-(2′-mercaptoethyl)-2-phenylacetamide]?
Answer: Ki [4]: 50 ± 3 µM; type of inhibition [4]: competitive inhibitors

Question: With `CC1(C)SCN(C(=O)[C@@H](CS)Cc2ccccc2)[C@H]1C(=O)O` [3-[2′-(S)-benzyl-3′-mercaptopropanoyl]-4-(S)-carboxy-5,5-dimethylthiazolidine] as the molecule, how does the “binding to metallo-β-lactamase” value [5] read?
Answer: “tightly” binds

Question: With `OCCS` [2-mercaptoethanol, reference compound] as the molecule, how does the “inhibition pattern” value [2] read?
Answer: noncompetitive inhibition

Question: And the IC50 [2]?
Answer: 4 µM

Question: What about the Ki [2, 6] of the same molecule?
Answer: 4000 nM

Question: And the Ki [2, 7]?
Answer: 2000 nM

Question: Which Ki [4] does the source give for N-benzylacetyl-D-alanylthioacetic acid here?
Answer: 1.6 ± 0.3 µM

Question: What about the type of inhibition [4] of the same molecule?
Answer: competitive inhibitors

Question: For `O=C1C[C@H]2SC=CN12` [penem], which “inhibition of class B β-lactamases” value (class B β-lactamases) is on record?
Answer: do not inhibit

Question: For `O=C(O)[C@H]1/C(=C/CO)O[C@@H]2CC(=O)N21` [clavulanic acid], which “inhibition of class B β-lactamases” value (class B β-lactamases) is on record?
Answer: do not inhibit

Question: Which “time dependence of the reversible inhibition” value ([2]; 1.0 nM of the 10-mer) does the source give for 5′-d(CCAAACTTGG)-3′ [10-mer] here?
Answer: time-independent; also recorded: not time-dependent

Question: And the “inhibition pattern” value [2]?
Answer: noncompetitive inhibition

Question: And the “fold lower Ki than the Ki reported for R-thiomandelic acid” value ([2]; vs. Mollard et al. (2001))?
Answer: 290 fold

Question: What about the “effect on the activity of the carboxypeptidase A” value [3] of the same molecule?
Answer: no effect; also recorded: did not show any inhibition

— US7456274B2, “Inhibition of metallo-β-lactamase” (priority 2003, dated 2008)
